The subject of one assay is CHO-MG cells. Nature of the assay: Cytotoxicity in PAT-deficient CHO-MG cells. The assay is classed as cell-based, Chinese hamster. Conditions: Cricetulus griseus, CHO-MG. From the text:
In terms of Table 1, L1210 cells are mouse leukemia cells and are the gold standard in terms of evaluating polyamine cytotoxicity data due to a plethora of prior data in this cell line for other polyamine structures. Clearly 7a was similar in all respects to 4a (Table 1). […] The lower the Ki value, the higher the affinity of the drug for the polyamine transporter (PAT) on the cell surface. Chinese hamster ovary (CHO) cells and a mutant line without an active PAT (CHO-MG) also evaluated the PAT selectivity of these drugs.
CHO and CHO-MG studies. Chinese hamster ovary (CHO) cells were chosen along with a mutant cell line (CHO-MG) in order to comment on how the synthetic conjugates gain access to cells. The CHO-MG cell line is polyamine-transport deficient and was isolated after selection for growth resistance to methylglyoxalbis(guanylhydrazone), MGBG, (CH3C[═N—NHC(═NH)NH2]CH[═N—NHC(═NH)NH2]) using a single-step selection after mutagenesis with ethylmethanesulfonate (Mandel et al., J. Cell. Physiol., 1978, 97, 335-344; Byers et al., Biochem. J. 1989, 263, 745-752).
For the purposes of this study, the CHO-MG cell line represents cells with no PAT activity and provided a model for alternative modes of entry or action, which are independent of PAT. These alternative modes of entry include passive diffusion or utilization of another transporter. The alternative modes of action may also include interactions on the outer surface of the plasma membrane or other membrane receptor interactions.
Biological studies. Murine leukemia cells (L1210), CHO and CHO-MG cells were grown in RPMI medium supplemented with 10% fetal calf serum, glutamine (2 mM), penicillin (100 U/mL), streptomycin (50 μg/mL). L-Proline (2 μg/mL) was added to the culture medium for CHO-MG cells. Cells were grown at 37° C. under a humidified 5% CO2 atmosphere. […] Trypan blue staining was used to determine cell viability before the initiation of a cytotoxicity experiment. Cells in early to mid log-phase were used. IC50 determinations. Cell growth was assayed in sterile 96-well microtiter plates (Becton-Dickinson, Oxnard, Calif., USA). L1210 cells were seeded at 5e^4 cells/mL of medium (100 μL/well). CHO and CHO-MG cells were plated at 2e^3 cells/mL. Drug solutions (10 μL per well) of appropriate concentration were added at the time of seeding for L1210 cells and after an overnight incubation for the CHO cell lines. After exposure to the drug for 48 hr, cell growth was determined by measuring formazan formation from 3-(4,5-dimethylthiazol-2-yl)2,5-diphenyltetrazolium using a Titertek Multiskan MCC/340 microplate reader for absorbance (540 nm) measurements (Mosmann, T., J. Immunol. Methods 1983, 65, 55-63).

Assay [1] concerns Drosophila imaginal leg discs. Description: Imaginal disc eversion assay. The class given is cell-based, Drosophila melanogaster. Conditions: Drosophila melanogaster, 15 hr incubation in Robb's medium.

Read-outs that look alike come from different tables or passages of the source.

In general, inhibition refers to the share of the control response that was lost under treatment. A low value points to little suppression. With `CCN(CCCNCCCN)Cc1c2ccccc2cc2ccccc12` [Compound 7a, N-(3-Amino-propyl)-N′-anthracen-9-ylmethyl-N′-ethyl-propane-1,3-diamine], the IC50 in the assay on CHO-MG cells (48 h incubation, new data, read-out: CHO-MG IC50) is 4 µM. For the same compound, the inhibition at 18 µM in assay [1] turned out to be 95%.
With `NCCCCNCCCCNCc1c2ccccc2cc2ccccc12` [Compound 6b], the IC50 in the assay on CHO-MG cells (absence of AG, 48 h, read-out: CHO-MG IC50 w/o AG) amounted to 7.05 µM; with CHO-MG cells (in the presence of AG, 48 h at 37° C., read-out: CHO-MG IC50) it was 66.7 µM. Further, at 18 µM the inhibition in assay [1] was 97%.
